What all share (assay type): cell-based
Conditions in all cases: Cavia porcellus, guinea pig PRP

The subject of assay [1] is ADP-Induced Platelet Aggregation. Briefly: Platelet aggregation inhibitory activity: ADP-induced platelet aggregation in platelet rich plasma. How it is done:
A blood of a guinea pig was sampled by using a 1/10 volume of a 3.8% sodium citrate as a platelet aggregation inhibitor, and a platelet rich plasma (PRP) was separated by centrifuging the blood sample at 1100 rpm for 10 min. After fractionating the PRP in the upper layer, the lower layer was centrifuged at 3000 rpm for 10 min to fractionate the platelet poor plasma (PPP). To 100 μL of PRP, a 1 μL solution of each compound was added, and after still standing at 37° C. for 1 min, the mixture was stirred at 37° C. for 1 min by a stirrer. Then, 11 μL of collagen, ristocetin, or ADP was added thereto to induce the platelet aggregation. The platelet aggregation ability was measured by using the mCM hematolaser 313M (L-M-S Inc.). Based on the assumption that a light transmittance of PPP corresponds to a 100% coagulation value, an aggregation rate at each concentration of the compound was determined, then, an IC50 value was calculated therefrom.
[Platelet Aggregation Inhibitory Activities: ADP-Induced Platelet Aggregation]

Assay [2] concerns Ristocetin-Induced Platelet Aggregation. Briefly: Platelet aggregation inhibitory activity: ristocetin-induced platelet aggregation in platelet rich plasma. In a few lines: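 Guinea pig citrated platelet-rich plasma preincubated with compound at 37 °C for 1 min, stirred 1 min, then aggregation induced with ristocetin. Light transmittance measured with PPP set as 100%. IC50 derived from aggregation rates across compound concentrations.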

Assay [3] concerns Collagen-Induced Platelet Aggregation. Briefly: Platelet aggregation inhibitory activity: collagen-induced platelet aggregation in platelet rich plasma. In a few lines: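 Guinea-pig citrated platelet-rich plasma incubated with compound 1 min at 37° C, stirred 1 min, then aggregation induced with collagen and measured by light transmittance, platelet-poor plasma set as 100%. Aggregation rates at each concentration gave the IC50.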

Drawing on patent publication US9533983B2, “Antiplatelet agent” (Mitsubishi Tanabe Pharma Corporation, priority 2009, dated 2017), this text covers IC50 for six compounds.

Where only a bound is given, the exact number is not on record here.

Consider `COc1ccc(-c2c(-c3ccccn3)nn3cc(C(F)(F)F)cnc23)cn1` [Example 180, 3-(6-methoxypyridin-3-yl)-2-pyridin-2-yl-6-(trifluoromethyl)pyrazolo[1,5-a]pyrimidine], for which the results for the IC50 in assay [1], in assay [2] and in assay [3] were over 10 µM, 0.014 µM and 0.055 µM, respectively.
In the same order, the values of `COc1ccc(-n2c(-c3ccccn3)nc3cc(OC(F)(F)F)ccc32)nn1` [Example 3, 1-(6-methoxypyridazin-3-yl)-2-pyridin-2-yl-5-(trifluoromethoxy)-1H-benzimidazole] are over 10 µM, 0.032 µM and 0.032 µM.
In the same order, the values of `COc1ccc(-n2c(-c3cn(C)nn3)nc3cc(OC(F)(F)F)ccc32)nn1` [Example 167, 1-(6-methoxypyridazin-3-yl)-2-(1-methyl-1H-1,2,3-triazol-4-yl)-5-(trifluoromethoxy)-1H-benzimidazole] are over 10 µM, 0.135 µM and 0.157 µM.
On to `COc1ccc(-n2c(-c3ccccn3)cc3cc(C(F)(F)F)cnc32)cn1` [Example 183, 1-(6-methoxypyridin-3-yl)-2-pyridin-2-yl-5-(trifluoromethyl)-1H-pyrrolo[2,3-b]pyridine], for which the values for the IC50 in assay [1], in assay [2] and in assay [3] were over 10 µM, 0.009 µM and 0.024 µM, respectively.
Consider `COc1ccc(-c2c(-c3ccc(F)cn3)nn3cc(C(F)(F)F)cnc23)cn1` [Example 192, 2-(5-fluoropyridin-2-yl)-3-(6-methoxypyridin-3-yl)-6-(trifluoromethyl)pyrazolo[1,5-a]pyrimidine], for which the IC50 in assay [1] is over 10 µM; in assay [2] it was 0.027 µM; in assay [3], 0.06 µM.
In the case of `COc1ccc(-n2c(-c3ccccn3)nc3cc(OC(F)(F)F)cnc32)cn1` [Example 147, 3-(6-methoxypyridin-3-yl)-2-pyridin-2-yl-6-(trifluoromethoxy)-3H-imidazo[4,5-b]pyridine], the IC50 in assay [1] is over 10 µM; in assay [2], 0.013 µM; in assay [3], 0.026 µM.

In general, IC50 refers to the concentration at which inhibition is half-maximal. Read a high IC50 as weaker potency in that assay.
